Measured values as given in ChEMBL document CHEMBL1201862, “PubChem BioAssay data set” (2004).
Active and inactive are the calls of the source.

Columns and labels:
[1] = target: Glucose-6-phosphate 1-dehydrogenase (Homo sapiens, UniProt P11413); assay: inhibition of Homo sapiens G6PD, dose series – biochemical, fluorescence, selectivity assay for P. falciparum G6PD inhibitor project, dose response (AID 504792); type: functional
[2] = target: Mitochondrial peptide methionine sulfoxide reductase (Bos taurus, UniProt P54149); assay: Absorbance-based biochemical high throughput dose response assay for activators of Methionine sulfoxide reductase A (MsrA).; type: functional
[3] = THP-1 cell cytotoxicity, dose response, cytotoxicity control for non-replicating M. tuberculosis project (AID 489025); type: functional
[4] = Vero E6 cell cytotoxicity, dose response, cytotoxicity control for non-replicating M. tuberculosis project, secondary assay (AID 492998); type: functional, VeroE6; settings: Vero C1008
cells = type: functional
Large T antigen = Large T antigen (Simian virus 40, UniProt P03070); type: functional, Betapolyomavirus macacae;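 note: Confirmatory-stage PubChem screen for compounds that inhibit SV40 T antigen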
[5] = target: DNA dC->dU-editing enzyme APOBEC-3G (Homo sapiens, UniProt Q9HC16); assay: Dose Response confirmation of small molecule APOBEC3G DNA Deaminase Inhibitors via a fluorescence-based single-stranded DNA deaminase assay. [Related pubchem assays (depositor defined):AID493012, AID493028]; type: functional
[6] = target: DNA dC->dU-editing enzyme APOBEC-3A (Homo sapiens, UniProt P31941); assay: A3A deaminase inhibition for selectivity – biochemical, dose response (AID 504722); type: functional
[7] = viability loss in human Jurkat cells – cell-based, luminescence, cytotoxicity control for P. falciparum gametocyte viability project, dose response (AID 1117277); type: functional;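 note: potency reflects loss of cellular ATP meaning fewer viable cells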
Procathepsin L = Procathepsin L (Homo sapiens, UniProt P07711)
[8] = target: Mannose-6-phosphate isomerase (Homo sapiens, UniProt P34949); assay: MPI inhibition at elevated mannose 6-phosphate – biochemical, fluorescence intensity, high mannose 6-phosphate, primary screen (AID 1220)
[9] = viability inhibitors of stage V gametocytes – luminescence, dose response (AID 1117278); type: functional, cell-based;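 note: gametocytes exposed to compound for 24 hours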
Hexokinase = target: T1, Hexokinase (Trypanosoma brucei, UniProt Q38C41); assay: Confirmation assay for inhibitors of Trypanosoma brucei hexokinase 1-Analogue-first series. [Related pubchem assays (depositor defined):AID1430, AID1632, AID2516, AID2560, AID2579, AID2600, AID449725, AID492951]; type: functional
T1 sequence (Q38C41 whole entry): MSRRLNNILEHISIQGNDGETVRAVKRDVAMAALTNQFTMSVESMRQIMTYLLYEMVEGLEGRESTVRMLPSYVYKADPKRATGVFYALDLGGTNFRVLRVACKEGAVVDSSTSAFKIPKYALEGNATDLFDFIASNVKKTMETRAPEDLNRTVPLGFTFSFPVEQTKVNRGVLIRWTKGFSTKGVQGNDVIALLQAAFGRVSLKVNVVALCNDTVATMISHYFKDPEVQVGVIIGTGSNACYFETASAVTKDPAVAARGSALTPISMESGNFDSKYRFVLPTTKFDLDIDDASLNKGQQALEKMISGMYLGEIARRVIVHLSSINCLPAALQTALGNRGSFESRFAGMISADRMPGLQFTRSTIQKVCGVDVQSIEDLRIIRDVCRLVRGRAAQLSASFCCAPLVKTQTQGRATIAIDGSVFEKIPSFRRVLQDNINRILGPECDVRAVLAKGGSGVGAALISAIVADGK

[10] = target: Eukaryotic translation initiation factor 4E (Mus musculus, UniProt P63073); assay: blockers of eIF4G binding by eIF4E – biochemical, TR-FRET, dose response (AID 855); type: functional;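 note: potency for disrupting eIF4E binding to eIF4GI seen as loss of FRET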
[11] = microbe, parasite or virus in culture; type: functional; settings: Mycobacterium tuberculosis
Aspartyl aminopeptidase = Aspartyl aminopeptidase (Plasmodium falciparum 3D7, UniProt Q8I2J3)
[12] = target: Polyadenylate-binding protein 1 (Homo sapiens, UniProt P11940); assay: blockers of PABP interaction with poly(A) – biochemical, fluorescence polarization, […] (AID 2014)
[13] = target: Eukaryotic translation initiation factor 4H (Homo sapiens, UniProt Q15056); assay: eIF4H binding inhibition – biochemical, uHTS, fluorescence polarization, translation initiation inhibitor project, primary screen (AID 2012)
Cytochrome P450 2D6 = Cytochrome P450 2D6 (Homo sapiens, UniProt P10635); assay: qHTS Assay for Inhibitors and Substrates of Cytochrome P450 2D6. [Related pubchem assays: 410 ]; type: ADME; settings: read-out: Potency
Ion channel NompC = Ion channel NompC (Danio rerio, UniProt Q7T1G6); assay: Dose response cell-based high-throughput screening assay for agonists of the transient receptor potential channel N1 (TRPN1). [Related pubchem assays (depositor defined):AID1424, AID1448]; type: functional
Oxytocin receptor = Oxytocin receptor (Homo sapiens, UniProt P30559); assay: Fluorescence-based cell-based high throughput dose response assay for agonists of the Oxytocin Receptor (OXTR). [Related pubchem assays: 2435 (Primary screen (OXTR agonists in singlicate)), 434991 (Counterscreen (V1R agonists in triplicate)), 2482 (Summary (OXTR agonists)), 434963 (Confirmation screen (OXTR agonists in triplicate))]; type: functional
Mucolipin-3 = target: T2, Mucolipin-3 (Homo sapiens, UniProt Q8TDD5); assay: Fluorescence counterscreen assay for […] agonists: dose response cell-based high-throughput screening assay to identify agonists of the transient receptor potential channel ML3 (TRPML3). [Related pubchem assays: 1424, 1448 ]; type: functional
T2 sequence (Q8TDD5 whole entry): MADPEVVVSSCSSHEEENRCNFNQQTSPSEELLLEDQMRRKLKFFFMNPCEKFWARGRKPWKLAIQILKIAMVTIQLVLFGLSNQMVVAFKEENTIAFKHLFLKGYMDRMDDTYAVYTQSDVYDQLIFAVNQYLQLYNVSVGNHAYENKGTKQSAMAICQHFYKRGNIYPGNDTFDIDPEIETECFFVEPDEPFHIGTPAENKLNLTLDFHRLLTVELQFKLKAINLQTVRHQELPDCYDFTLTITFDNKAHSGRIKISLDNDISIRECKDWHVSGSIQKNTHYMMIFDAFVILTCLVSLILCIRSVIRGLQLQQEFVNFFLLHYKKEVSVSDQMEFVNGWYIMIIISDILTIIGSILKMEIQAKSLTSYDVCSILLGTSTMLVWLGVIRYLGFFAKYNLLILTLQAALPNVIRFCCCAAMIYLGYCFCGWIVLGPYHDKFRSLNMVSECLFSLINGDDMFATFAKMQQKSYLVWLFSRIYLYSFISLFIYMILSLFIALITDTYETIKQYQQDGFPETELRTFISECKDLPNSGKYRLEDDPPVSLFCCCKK

Galanin receptor type 2 = Galanin receptor type 2 (Homo sapiens, UniProt O43603); assay: Dose Response cell-based high-throughput screening assay to identify antagonists of galanin receptor 2 (GALR2). [Related pubchem assays: 828, 866 ]; type: functional
Vasopressin V1a receptor = Vasopressin V1a receptor (Homo sapiens, UniProt P37288); assay: Counterscreen for Oxytocin Receptor (OXTR) agonists: Fluorescence-based cell-based high throughput dose response assay to identify agonists of the vasopressin 1 receptor (V1R). [Related pubchem assays: 2435 (Primary screen (OXTR agonists in singlicate)), 434991 (Counterscreen (V1R agonists in triplicate)), 2482 (Summary (OXTR agonists)) …; type: functional
[14] = Trypanosoma cruzi growth suppression in host cells – NIH3T3 host cells, beta-gal luminescence, confirmation (AID 2044); type: functional, cell-based;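 note: intracellular parasites grown in NIH/3T3 mouse fibroblasts as host cells; luminescent beta-galactosidase reporter signal from transgenic T. cruzi replicating inside host cells; inhibitors lower the luminescence signal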
[15] = target: Likely tRNA 2'-phosphotransferase (Candida albicans (strain SC5314 / ATCC MYA-2876) (Yeast), UniProt Q5A7N4); assay: inhibition of Candida TPT1 enzyme activity – biochemical, fluorescence polarization, dose response (AID 2160)
[16] = NIH3T3 cell viability loss – ATP luminescence, mouse fibroblasts, counter-screen, dose response (AID 2010); type: functional, cell-based;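 note: cells exposed to compound for about 90 hours before reading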
Protein RecA = target: T3, Protein RecA (Mycobacterium tuberculosis, UniProt P9WHJ3); assay: Fluorescence Cell-Free Homogeneous Dose Retest to Identify Inhibitors of RecA-Intein Splicing Activity. [Related pubchem assays (depositor defined):AID2097, AID2223, AID489010, AID492950]; type: functional
T3 sequence (P9WHJ3 whole entry): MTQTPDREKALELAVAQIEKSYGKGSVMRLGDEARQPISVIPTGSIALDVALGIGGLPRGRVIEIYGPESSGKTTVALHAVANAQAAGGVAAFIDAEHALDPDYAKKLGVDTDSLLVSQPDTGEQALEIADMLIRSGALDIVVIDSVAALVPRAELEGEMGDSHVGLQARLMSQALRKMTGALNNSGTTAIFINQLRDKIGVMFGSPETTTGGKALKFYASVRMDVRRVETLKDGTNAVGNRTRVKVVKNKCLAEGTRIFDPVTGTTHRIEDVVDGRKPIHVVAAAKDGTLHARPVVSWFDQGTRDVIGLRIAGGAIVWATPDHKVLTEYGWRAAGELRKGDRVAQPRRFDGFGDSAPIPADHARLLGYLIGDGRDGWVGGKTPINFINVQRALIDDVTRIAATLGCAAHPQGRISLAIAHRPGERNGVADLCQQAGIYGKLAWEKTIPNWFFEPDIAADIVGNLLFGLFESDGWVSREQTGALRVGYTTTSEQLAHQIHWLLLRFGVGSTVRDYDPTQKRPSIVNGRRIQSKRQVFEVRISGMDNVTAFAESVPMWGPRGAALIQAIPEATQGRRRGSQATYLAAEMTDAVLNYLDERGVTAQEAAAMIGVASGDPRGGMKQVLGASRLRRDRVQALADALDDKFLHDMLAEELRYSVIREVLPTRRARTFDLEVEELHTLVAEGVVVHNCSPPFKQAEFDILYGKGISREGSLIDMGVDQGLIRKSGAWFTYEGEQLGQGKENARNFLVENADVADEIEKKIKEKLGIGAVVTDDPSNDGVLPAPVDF

[17] = target: T4, Replicative DNA helicase DnaB (Mycobacterium tuberculosis, UniProt P9WMR3); assay: DnaB intein splicing inhibitors, dose response, biochemical, cell-free fluorescence (AID 449749); type: functional
T4 sequence (P9WMR3 whole entry): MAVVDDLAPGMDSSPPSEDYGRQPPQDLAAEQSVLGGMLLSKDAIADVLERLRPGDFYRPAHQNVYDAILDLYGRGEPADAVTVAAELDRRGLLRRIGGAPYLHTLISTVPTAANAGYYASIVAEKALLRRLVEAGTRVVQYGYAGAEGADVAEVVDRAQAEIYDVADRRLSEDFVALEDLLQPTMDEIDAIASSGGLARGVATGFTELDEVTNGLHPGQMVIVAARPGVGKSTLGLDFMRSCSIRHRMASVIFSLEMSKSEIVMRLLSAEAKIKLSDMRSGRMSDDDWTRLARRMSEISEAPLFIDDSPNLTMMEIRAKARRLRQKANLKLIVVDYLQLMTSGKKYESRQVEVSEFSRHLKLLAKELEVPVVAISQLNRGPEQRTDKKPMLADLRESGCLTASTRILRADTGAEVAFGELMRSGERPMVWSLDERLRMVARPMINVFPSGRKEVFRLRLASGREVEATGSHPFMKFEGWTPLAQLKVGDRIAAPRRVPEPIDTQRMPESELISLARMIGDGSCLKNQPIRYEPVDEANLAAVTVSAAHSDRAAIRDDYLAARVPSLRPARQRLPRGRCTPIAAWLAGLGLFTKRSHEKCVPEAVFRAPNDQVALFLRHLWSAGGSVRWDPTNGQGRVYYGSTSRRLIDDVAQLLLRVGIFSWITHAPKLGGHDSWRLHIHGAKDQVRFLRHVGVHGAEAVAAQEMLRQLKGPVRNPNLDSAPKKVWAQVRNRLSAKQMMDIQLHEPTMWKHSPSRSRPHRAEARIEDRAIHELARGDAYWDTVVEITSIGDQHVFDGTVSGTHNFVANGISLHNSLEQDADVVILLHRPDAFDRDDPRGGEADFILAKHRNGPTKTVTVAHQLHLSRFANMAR

[18] = target: Guanyl-specific ribonuclease T1 (Aspergillus oryzae (strain ATCC 42149 / RIB 40), UniProt P00651); assay: inhibition of ribonuclease T1 activity – biochemical, fluorescence polarization, 1536-well, counter-screen for TPT1 inhibitor project, dose response (AID 2167)
[19] = IC50 of Artemis nuclease activity blockers – biochemical, fluorescence intensity, dose response (AID 720701); type: functional;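 note: Artemis endonuclease enzyme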

Vasopressin V1a receptor, sequence (P37288 whole entry): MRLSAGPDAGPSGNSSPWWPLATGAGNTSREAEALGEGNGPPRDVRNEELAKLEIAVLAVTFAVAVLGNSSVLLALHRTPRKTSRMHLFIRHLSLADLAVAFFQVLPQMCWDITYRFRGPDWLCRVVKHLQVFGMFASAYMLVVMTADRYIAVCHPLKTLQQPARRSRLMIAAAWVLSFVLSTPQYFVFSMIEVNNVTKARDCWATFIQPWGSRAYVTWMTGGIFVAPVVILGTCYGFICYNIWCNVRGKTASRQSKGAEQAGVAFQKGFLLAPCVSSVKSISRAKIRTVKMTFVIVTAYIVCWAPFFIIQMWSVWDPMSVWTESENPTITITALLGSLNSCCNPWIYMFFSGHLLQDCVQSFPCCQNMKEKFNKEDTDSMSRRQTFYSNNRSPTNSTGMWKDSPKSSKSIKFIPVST
Likely tRNA 2'-phosphotransferase, sequence (Q5A7N4 whole entry): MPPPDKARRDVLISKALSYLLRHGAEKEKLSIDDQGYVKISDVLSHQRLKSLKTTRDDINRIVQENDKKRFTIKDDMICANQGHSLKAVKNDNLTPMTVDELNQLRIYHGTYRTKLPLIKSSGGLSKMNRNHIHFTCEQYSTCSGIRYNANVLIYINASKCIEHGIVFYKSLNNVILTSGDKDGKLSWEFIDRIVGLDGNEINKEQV
Mitochondrial peptide methionine sulfoxide reductase, sequence (P54149 whole entry): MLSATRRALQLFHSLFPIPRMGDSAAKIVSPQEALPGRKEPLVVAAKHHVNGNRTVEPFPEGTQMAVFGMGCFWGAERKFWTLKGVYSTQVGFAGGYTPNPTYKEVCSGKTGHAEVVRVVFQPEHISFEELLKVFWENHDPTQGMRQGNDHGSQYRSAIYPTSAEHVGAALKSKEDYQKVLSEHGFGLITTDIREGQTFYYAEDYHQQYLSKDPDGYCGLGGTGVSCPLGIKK
Procathepsin L, sequence (P07711 whole entry): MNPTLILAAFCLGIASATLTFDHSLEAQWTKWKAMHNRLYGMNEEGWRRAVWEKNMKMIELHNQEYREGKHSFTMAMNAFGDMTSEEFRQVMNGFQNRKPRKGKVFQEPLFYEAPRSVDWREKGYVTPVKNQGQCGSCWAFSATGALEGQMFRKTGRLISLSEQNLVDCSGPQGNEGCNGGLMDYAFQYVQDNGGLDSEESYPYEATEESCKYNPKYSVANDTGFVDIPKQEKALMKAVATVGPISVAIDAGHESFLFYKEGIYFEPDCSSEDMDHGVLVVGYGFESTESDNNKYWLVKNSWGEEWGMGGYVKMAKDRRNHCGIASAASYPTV
Oxytocin receptor, sequence (P30559 whole entry): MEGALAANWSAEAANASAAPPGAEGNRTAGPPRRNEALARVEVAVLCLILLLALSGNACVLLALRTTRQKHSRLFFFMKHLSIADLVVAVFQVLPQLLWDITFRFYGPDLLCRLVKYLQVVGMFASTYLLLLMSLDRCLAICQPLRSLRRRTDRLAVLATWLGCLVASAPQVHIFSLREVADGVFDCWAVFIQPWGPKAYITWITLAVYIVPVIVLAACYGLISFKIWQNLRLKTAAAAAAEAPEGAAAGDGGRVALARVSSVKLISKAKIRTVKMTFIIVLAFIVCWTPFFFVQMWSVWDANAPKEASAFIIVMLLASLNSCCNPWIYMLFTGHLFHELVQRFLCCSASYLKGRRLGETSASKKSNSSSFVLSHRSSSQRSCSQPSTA
Guanyl-specific ribonuclease T1, sequence (P00651 whole entry): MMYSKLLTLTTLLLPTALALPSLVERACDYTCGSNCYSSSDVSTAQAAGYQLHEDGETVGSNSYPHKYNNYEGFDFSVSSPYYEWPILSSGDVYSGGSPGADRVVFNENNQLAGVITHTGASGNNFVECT
DNA dC->dU-editing enzyme APOBEC-3A, sequence (P31941 whole entry): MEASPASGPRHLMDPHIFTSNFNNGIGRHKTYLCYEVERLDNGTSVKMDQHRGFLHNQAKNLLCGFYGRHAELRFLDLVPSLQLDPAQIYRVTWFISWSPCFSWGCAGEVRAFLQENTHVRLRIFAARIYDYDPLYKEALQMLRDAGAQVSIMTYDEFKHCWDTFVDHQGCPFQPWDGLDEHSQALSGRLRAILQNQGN
Mannose-6-phosphate isomerase, sequence (P34949 whole entry): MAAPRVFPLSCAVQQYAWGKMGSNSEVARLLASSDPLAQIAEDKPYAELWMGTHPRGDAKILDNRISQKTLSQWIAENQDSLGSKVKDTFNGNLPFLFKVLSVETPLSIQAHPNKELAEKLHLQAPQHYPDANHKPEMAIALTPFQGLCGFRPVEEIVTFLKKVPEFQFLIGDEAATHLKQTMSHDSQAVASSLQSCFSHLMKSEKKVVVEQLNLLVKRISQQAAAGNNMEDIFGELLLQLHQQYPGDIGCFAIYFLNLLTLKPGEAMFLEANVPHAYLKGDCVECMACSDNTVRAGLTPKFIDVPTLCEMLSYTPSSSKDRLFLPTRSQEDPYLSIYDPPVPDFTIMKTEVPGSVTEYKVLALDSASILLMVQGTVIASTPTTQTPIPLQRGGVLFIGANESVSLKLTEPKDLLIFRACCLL
Eukaryotic translation initiation factor 4E, sequence (P63073 whole entry): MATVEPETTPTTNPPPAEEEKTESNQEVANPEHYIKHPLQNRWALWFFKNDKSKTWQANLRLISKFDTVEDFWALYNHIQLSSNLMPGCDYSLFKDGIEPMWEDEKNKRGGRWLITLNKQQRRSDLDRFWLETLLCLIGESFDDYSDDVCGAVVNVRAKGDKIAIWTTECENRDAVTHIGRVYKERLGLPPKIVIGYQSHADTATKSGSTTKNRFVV
Glucose-6-phosphate 1-dehydrogenase, sequence (P11413 whole entry): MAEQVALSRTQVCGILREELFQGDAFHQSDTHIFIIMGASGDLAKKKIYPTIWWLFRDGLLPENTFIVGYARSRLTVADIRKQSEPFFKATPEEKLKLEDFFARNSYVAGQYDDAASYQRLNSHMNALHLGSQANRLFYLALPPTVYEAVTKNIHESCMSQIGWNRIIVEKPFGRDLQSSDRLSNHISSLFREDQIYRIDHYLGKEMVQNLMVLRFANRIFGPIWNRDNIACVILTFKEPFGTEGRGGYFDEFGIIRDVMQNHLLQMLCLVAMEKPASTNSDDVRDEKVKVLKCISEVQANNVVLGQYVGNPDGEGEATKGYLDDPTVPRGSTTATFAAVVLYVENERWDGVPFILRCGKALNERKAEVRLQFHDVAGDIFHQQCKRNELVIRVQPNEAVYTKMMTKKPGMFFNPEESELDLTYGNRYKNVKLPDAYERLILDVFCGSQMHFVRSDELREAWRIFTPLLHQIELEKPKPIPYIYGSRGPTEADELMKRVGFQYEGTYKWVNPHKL
Ion channel NompC, sequence (Q7T1G6 whole entry): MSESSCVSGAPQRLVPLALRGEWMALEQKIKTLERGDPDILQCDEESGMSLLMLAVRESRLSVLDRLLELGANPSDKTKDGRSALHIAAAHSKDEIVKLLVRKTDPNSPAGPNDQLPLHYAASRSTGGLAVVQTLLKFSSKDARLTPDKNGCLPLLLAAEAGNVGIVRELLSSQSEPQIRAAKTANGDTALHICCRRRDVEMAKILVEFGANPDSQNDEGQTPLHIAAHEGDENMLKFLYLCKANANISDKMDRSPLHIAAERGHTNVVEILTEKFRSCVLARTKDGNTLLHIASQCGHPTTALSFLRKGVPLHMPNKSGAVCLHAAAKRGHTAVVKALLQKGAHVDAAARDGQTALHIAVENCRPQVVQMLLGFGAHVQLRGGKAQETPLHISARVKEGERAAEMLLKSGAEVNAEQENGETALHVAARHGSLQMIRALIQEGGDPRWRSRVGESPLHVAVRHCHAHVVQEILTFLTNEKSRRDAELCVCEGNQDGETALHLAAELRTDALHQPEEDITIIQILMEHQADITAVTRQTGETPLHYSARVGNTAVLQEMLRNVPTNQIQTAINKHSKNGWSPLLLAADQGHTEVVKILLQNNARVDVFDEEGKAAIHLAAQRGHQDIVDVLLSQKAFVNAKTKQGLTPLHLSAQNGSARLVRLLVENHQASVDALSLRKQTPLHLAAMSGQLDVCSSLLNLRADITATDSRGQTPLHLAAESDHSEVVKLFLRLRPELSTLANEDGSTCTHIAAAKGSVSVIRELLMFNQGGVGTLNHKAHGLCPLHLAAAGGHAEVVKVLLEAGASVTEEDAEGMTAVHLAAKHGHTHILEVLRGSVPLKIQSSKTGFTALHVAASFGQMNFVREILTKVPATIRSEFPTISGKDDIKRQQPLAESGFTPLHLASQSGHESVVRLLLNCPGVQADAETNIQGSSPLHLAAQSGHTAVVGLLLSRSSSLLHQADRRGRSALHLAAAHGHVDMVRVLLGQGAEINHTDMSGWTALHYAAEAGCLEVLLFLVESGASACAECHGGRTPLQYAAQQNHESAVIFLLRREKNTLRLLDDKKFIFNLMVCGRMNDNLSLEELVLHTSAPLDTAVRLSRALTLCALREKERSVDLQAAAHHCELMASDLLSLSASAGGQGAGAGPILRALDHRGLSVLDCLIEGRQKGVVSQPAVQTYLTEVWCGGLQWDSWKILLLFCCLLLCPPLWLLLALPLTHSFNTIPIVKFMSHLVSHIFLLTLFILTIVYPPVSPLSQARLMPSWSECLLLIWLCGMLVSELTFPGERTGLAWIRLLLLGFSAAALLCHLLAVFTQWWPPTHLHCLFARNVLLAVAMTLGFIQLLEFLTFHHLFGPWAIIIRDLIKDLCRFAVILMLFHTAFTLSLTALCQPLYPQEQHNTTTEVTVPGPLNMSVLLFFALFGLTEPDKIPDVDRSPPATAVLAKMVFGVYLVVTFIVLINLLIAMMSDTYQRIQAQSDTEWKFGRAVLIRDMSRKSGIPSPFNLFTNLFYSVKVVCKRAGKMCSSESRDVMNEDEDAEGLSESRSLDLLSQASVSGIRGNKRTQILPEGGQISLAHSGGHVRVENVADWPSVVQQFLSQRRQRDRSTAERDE

With `Cc1ccccc1-n1sc2cc(F)ccc2c1=O` the IC50 [1] was 13.9 µM (active), the EC50 [2] was > 104 µM (inactive) and the CC50 [3] was 19 µM (active). For the same compound, the CC50 [4] was 12.1 µM (active), the IC50 (cells) was 23.7 µM (active) and the IC50 (Large T antigen) was 13.1 µM (active). For the same compound, the IC50 [5] was 9.02 µM (active), the IC50 [6] was > 100 µM (inactive) and the IC50 [7] was 6.73 µM (active). For the same compound, the IC50 (Procathepsin L) was > 59.6 µM (not active), the IC50 [8] was 8.95 µM (active) and the IC50 [9] was 39.6 µM (inactive). The IC50 (Hexokinase) was 4.8 µM (active), the IC50 [10] was 36.7 µM (inactive) and the CC50 [11] was 13 µM (active). The IC50 (Aspartyl aminopeptidase) was 0.648 µM (active).

For `O=C1C=C(NCc2ccc(Cl)cc2)CC(c2ccco2)C1` (stereo unspecified), the IC50 [12] was 64.6 µM (active) and the IC50 [13] was 41.3 µM (active).

For `COC(=O)[C@@H]1C[C@H]1[C@@H](NC(=O)OCc1ccccc1)c1ccccc1`, the AC50 (Cytochrome P450 2D6) was 12.6 µM (inconclusive).

With `C/N=c1\[nH]c2cc([N+](=O)[O-])c([N+](=O)[O-])cc2[nH]\c1=N\C` the EC50 (Ion channel NompC) was > 29.9 µM (inactive), the EC50 (Oxytocin receptor) was > 29.9 µM (not active) and the EC50 (Mucolipin-3) was > 29.9 µM (not active). The IC50 (Galanin receptor type 2) was 1.29 µM (active) and the EC50 (Vasopressin V1a receptor) was > 29.9 µM (not active).

For `Cc1ccc2nc(N/N=C\c3ccc([N+](=O)[O-])o3)nc(-c3ccccc3)c2c1`, the EC50 [14] was 0.176 µM (active), the IC50 [15] was > 55.7 µM (not active) and the EC50 [16] was 9.01 µM (active). For the same compound, the EC50 (Protein RecA) was 208 µM (inconclusive), the AC50 [17] was > 380 µM (inactive) and the IC50 [18] was > 55.7 µM (not active). For the same compound, the IC50 [19] was > 20 µM (inactive).
